Test systems include A498 renal; SNB-75 CNS; HT29 colon; SK-MEL-2 melanoma; NCI-H522 lung; SNB-19 CNS; OVCAR-8 ovarian; UACC-62 melanoma; EKVX NSCLC; HL-60(TB) leukemia; TK-10 renal; 786-0 renal; SF-295 CNS; RPMI-8226 leukemia; KM12 colon; NCI/ADR-RES ovarian; MCF7 breast; HS 578T breast; DU-145 prostate.
What all share (assay): NCI anticancer screen, dose series, 48 h

SMILES strings stand for the structures.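 Cultured in 96-well plates, cells were exposed to test compound for 48 hours across five concentrations. At the TGI there is no net growth.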

Regarding `CCO/C(O)=c1/s/c(=C(\C#N)c2nc3ccccc3[nH]2)n(-c2ccccc2)c1=N`, the TGI with A498 renal, with SNB-75 CNS, in the experiment on HT29 colon, in the experiment on SK-MEL-2 melanoma, in the experiment with NCI-H522 lung and with SNB-19 CNS was over 100 µM each time. For the same molecule, the TGI in the experiment with OVCAR-8 ovarian, in the experiment on UACC-62 melanoma, in the experiment with EKVX NSCLC, in the experiment on HL-60(TB) leukemia, in the experiment with TK-10 renal and with 786-0 renal was over 100 µM in each case. The molecule also registered a TGI with SF-295 CNS of over 100 µM.
As to `COC(=O)C(=O)C(C(=O)OC)C(=O)C(=O)Nc1c(Cl)cc([N+](=O)[O-])cc1Cl` (stereo not given), the TGI in the experiment on A498 renal, in the experiment with SNB-75 CNS, in the experiment on HT29 colon, in the experiment on RPMI-8226 leukemia, in the experiment with SK-MEL-2 melanoma and with KM12 colon was over 100 µM each time. The TGI with NCI-H522 lung, in the experiment with NCI/ADR-RES ovarian, with SNB-19 CNS, in the experiment on MCF7 breast, with HS 578T breast and with OVCAR-8 ovarian was over 100 µM each time. In addition, the TGI with UACC-62 melanoma, with EKVX NSCLC, in the experiment on HL-60(TB) leukemia, in the experiment on TK-10 renal, with 786-0 renal and with SF-295 CNS was over 100 µM each time.
Take `CSC(C1c2ccccc2N(C)c2[nH]c(=O)n(C)c(=O)c21)S(=O)(=O)c1ccc(C)cc1` (stereo not given): the TGI in the experiment with A498 renal was over 100 µM; in the experiment on SNB-75 CNS, over 100 µM; in the experiment on HT29 colon, over 100 µM; with SK-MEL-2 melanoma, over 100 µM; in the experiment with NCI-H522 lung, 46.6 µM; in the experiment with SNB-19 CNS, over 100 µM. The TGI in the experiment on OVCAR-8 ovarian, with UACC-62 melanoma, in the experiment on EKVX NSCLC, in the experiment on HL-60(TB) leukemia, in the experiment with TK-10 renal and in the experiment on 786-0 renal was over 100 µM throughout. Also, in the experiment with SF-295 CNS, the TGI was over 100 µM.
`CC(=O)[C@@]1(c2ccccc2)CC2(CCN(C)CC2)O[C@H]1C`: the TGI in the experiment with A498 renal, in the experiment with SNB-75 CNS, in the experiment with DU-145 prostate, in the experiment on HT29 colon, in the experiment with RPMI-8226 leukemia and with KM12 colon was over 100 µM each time. Moreover, the TGI with NCI-H522 lung, in the experiment on NCI/ADR-RES ovarian, in the experiment with SNB-19 CNS, in the experiment on OVCAR-8 ovarian, in the experiment with EKVX NSCLC and in the experiment with TK-10 renal was over 100 µM in each case. For the same molecule, the TGI with 786-0 renal and in the experiment with SF-295 CNS was over 100 µM throughout.
For the molecule `CC12CCc3ccccc3C1=NNC(=O)C2` (stereo not given), the TGI in the experiment with A498 renal, with SNB-75 CNS, in the experiment on HT29 colon, in the experiment on RPMI-8226 leukemia, with SK-MEL-2 melanoma and in the experiment on KM12 colon was over 100 µM throughout. Moreover, the TGI in the experiment with NCI-H522 lung, with SNB-19 CNS, with OVCAR-8 ovarian, in the experiment with EKVX NSCLC, in the experiment with HL-60(TB) leukemia and in the experiment on TK-10 renal was over 100 µM throughout. Moreover, the TGI in the experiment on 786-0 renal and in the experiment with SF-295 CNS was over 100 µM in each case.
Consider `CCCCCCCCCCCCCS(=O)(=O)NCC(N)=O`, for which the TGI was over 100 µM with A498 renal; 74.7 µM in the experiment with SNB-75 CNS; over 100 µM with HT29 colon; over 100 µM in the experiment with SK-MEL-2 melanoma; over 100 µM in the experiment on KM12 colon; over 100 µM with NCI-H522 lung. The TGI with SNB-19 CNS, in the experiment with OVCAR-8 ovarian, in the experiment on UACC-62 melanoma, in the experiment on EKVX NSCLC, in the experiment on HL-60(TB) leukemia and in the experiment on TK-10 renal was over 100 µM throughout. For the same molecule, the TGI in the experiment with 786-0 renal and in the experiment on SF-295 CNS was over 100 µM each time.
On to `COc1ccc([C@H]2CC3C(=O)N(c4ccc(OC)cc4)C(=O)C3c3[nH]c4ccccc4c32)cc1` (stereo not given in full), for which the TGI with A498 renal was over 100 µM; in the experiment with SNB-75 CNS it was 83.7 µM; with SK-MEL-2 melanoma, over 100 µM; in the experiment with KM12 colon, over 100 µM; in the experiment on NCI-H522 lung, over 100 µM; with SNB-19 CNS it was over 100 µM. Further, the TGI is over 100 µM with OVCAR-8 ovarian; over 100 µM in the experiment on UACC-62 melanoma; over 100 µM in the experiment on EKVX NSCLC; over 100 µM in the experiment on TK-10 renal; 47.7 µM in the experiment with 786-0 renal; 78.3 µM in the experiment on SF-295 CNS.
Turning to `CCN(CC)CCC1CCCCN1CC(=O)N1c2cc(Cl)ccc2NC(=O)CC1C` (stereo not given), the TGI in the experiment with A498 renal, in the experiment with DU-145 prostate, with HT29 colon, with RPMI-8226 leukemia, in the experiment with SK-MEL-2 melanoma and in the experiment with KM12 colon was over 100 µM throughout. In addition, the TGI in the experiment with NCI-H522 lung, in the experiment on SNB-19 CNS, with MCF7 breast, in the experiment on HS 578T breast, in the experiment on OVCAR-8 ovarian and with UACC-62 melanoma was over 100 µM throughout. The TGI with EKVX NSCLC, with HL-60(TB) leukemia, with TK-10 renal, in the experiment with 786-0 renal and with SF-295 CNS was over 100 µM each time.

The values are drawn from PubChem BioAssay (NCI).
